Laboratory results published in publication PMC6044923 (ACS Omega, 2017).

Target: amyloid-β (Aβ(1–42)) (Homo sapiens, UniProt P05067)
Assay: SPR aggregation assay
Format: biochemical

Chain of amyloid-β (Aβ(1–42)) (P05067 672-713): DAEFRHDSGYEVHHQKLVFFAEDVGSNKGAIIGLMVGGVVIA

- IC50: 430 nM
SMILES: C[n+]1ccc(-c2c3nc(c(-c4cc[n+](C)cc4)c4ccc([nH]4)c(-c4cc[n+](C)cc4)c4nc(c(-c5cc[n+](C)cc5)c5ccc2[nH]5)C=C4)C=C3)cc1 [TMPyP, 5,10,15,20-tetrakis(N-methyl-4-pyridyl)porphyrin]
